Measured values published in US6869956B2, “Methods of treating inflammatory and immune diseases using inhibitors of IκB kinase (IKK)” (Bristol-Myers Squibb Company, priority 2000, dated 2005).

How the values were obtained:
Pharmacokinetics in mice = assay type: in vivo; details: mouse, plasma, BALB/c mice
Description: Compound 6 was administered to BALB/c mice either per orally (p.o.) or intravenously (i.v.). Blood was drawn at various times (0.5 to 4 hours) after dosing and the plasma drug levels measured by liquid chromatography-mass spectral analysis.

[1] = test system: transplanted hearts (graft rejection); experiment: Murine neonatal heart to ear transplants, graft survival; assay type: in vivo, BALB/c mice
Description: Cardiac transplants were performed as described by Fulmer et al. (Fulmer, R. I. et al. The American Journal of Anatomy 113:273-281, 1963). Neonatal hearts were obtained from newborn C57BL/6 mice not more than 48 hours after birth. The hearts were transplanted into recipient BALB/c mice, which were prepared under anesthesia by making a small incision at the base of the ear pinna and forming a pocket by gently lifting the skin away from the ear. The incision permitted the insertion of the donor heart subcutaneously into the pocket. […] The pulsations of the heart were measured by contractile activity with an appropriate electrocardiogram (ECG) monitoring device. The contractile activity of the transplanted graft was monitored daily. The time of graft rejection was defined as the day after transplantation on which contractile activity ceased. Without therapeutic intervention, the host mounts an immune response to the transplanted heart (i.e., graft rejection). This immune response causes the transplanted heart to cease beating typically 10-14 days post transplantation.
Test compounds were administered in daily doses either alone or in combination with other therapies, such as Cyclosporine A (15 mg/kg, orally, “p.o.”) or CTLA4-Ig (200 μg in 200 μl PBS given intraperitoneally on only days 0, 2, and 4). Table 2 presents the effects of test compounds on median survival time of transplanted hearts, either alone or in combination with Cyclosporine A (CsA). Table 3 presents the effects of test compounds on median survival time of transplanted hearts, either alone or in combination with CTLA4-Ig.

[2] = test system: collagen-induced arthritis; experiment: Murine model of collagen-induced arthritis; assay type: in vivo, DBA/1 LacJ male mice; design: Cumulative arthritis injury score (±sem): scale not given here
Description: DBA/1 LacJ male mice 6-8 wk (Jackson Laboratories; Bar Harbor, Me.) were immunized subcutaneously on day 0 and on day 21 with 100 μg bovine type 11 collagen in 0.1 mL RIBI Adjuvant System (RAS) with monophosphoryl lipid A(RIBI lmmunoChem Research; Hamilton, Mont.). In this model, disease onset occurs within one week after the second collagen injection.
When treated in a preventative mode, test compounds were administered daily beginning on day 0 through day 41.
In the established (i.e. therapeutic) mode, the administration of test compounds was initiated only after paw inflammation of an animal had achieved a score of 2 (as defined below), at which time, the animal was randomly assigned to a treatment group. Treatment continued daily for all four paws as described below.
Following the Day 21 booster, mice were regularly monitored for the development and severity of paw inflammation.
Clinical paw scores for all four paws were summed for each mouse and the mean ± standard deviation (SD) was calculated for each treatment group.
Histological scoring involved evaluating histologically and grading semi-quantitatively tibiotarsal joints of sacrificed mice, specifically examining the severity of inflammation, synovial hyperplasia, bone resorption, and cartilage erosion. Cumulative arthritis injury scores for each group were compared by the nonparametric Kruskal-Wallis analysis of variance.

DSS-induced colitis = experiment: Dextran sulfate sodium-induced murine model of inflammatory bowel disease; assay type: in vivo, Swiss-Webster mice; details: for Mean clinical score: colon, scale 0-3
Description: In this model, Swiss-Webster mice (8 weeks old, 5 animals per treatment group) were given 6% DSS in their drinking water for 7 consecutive days to induce intestinal inflammation. Test compounds were administered daily throughout the study. On day 9, animals were sacrificed and the colons were removed for clinical and histological evaluation.
Clinical scoring was determined by the gross clinical evaluation of the injury on a scale from 0 (normal) to 3 (severe) as detailed in Table 7.
For histological scoring, colon sections were graded as to the severity of crypt injury and the degree of inflammation. The crypt injury was scored as detailed in Table 8, wherein the crypt is part of the glandular make-up of the colon.
Tissue involvement was scored as detailed in Table 9. Any signs of crypt injury or inflammation, regardless of severity, constitute tissue involvement.
The injury histological score is defined as the product of the crypt injury grade and the tissue involvement grade. The scoring of severity of inflammation is detailed in Table 10.
The inflammation histological score is the product of the severity of inflammation grade and the extent of tissue involvement grade. Crypt injury and inflammatory scoring were performed on each colon section and a mean score and standard error were determined for each section. Cumulative crypt injury and inflammatory scores for each group were determined. The results of Table 12 present the cumulative injury and inflammation scores of colons in mice with DSS-induced colitis.

[3] = test system: ovalbumin-induced inflammatory cell infiltration in the lung; experiment: Ovalbumin-induced inflammatory cell infiltration into the lung of sensitized mice; assay type: in vivo, BALB/c mice; details: for Total Inflammatory Cells in BAL: days 14 to 17, BAL on day 18
Description: In the pulmonary inflammation animal model, BALB/c mice were sensitized by an intraperitoneal injection of 0.1 mL alum-precipitated antigen containing 40 μg ovalbumin adsorbed to aluminum hydroxide gel on days 0 and 10. On day 14, animals received intranasal challenge with 100 μg ovalbumin in 50 μl saline (PBS). Mice were injected intraperitoneally with antigen to sensitize the animals prior to intranasal challenge to induce lung inflammation. Administration of the test compound was given on days 14 to 17. On day 18, bronchoalveolar lavage fluid (BAL) was collected for measurements of total inflammatory cell infiltration (eosinophils, monocytes, lymphocytes, and neutrophils).

[4] = test system: TNFα production in THP-1 cells; experiment: TNFα production assay in LPS-stimulated THP-1 cells; assay type: cell-based; details: Homo sapiens, 6 hours, ELISA, read-out: IC50 in TNF-α production assay
Description: THP-1 (human monocytic cell line) obtained from ATCC was cultured in RPMI-1640 supplemented with 10% FBS, sodium pyruvate, HEPES, 2-mercaptoethanol, Penicillin/Streptomycin. To a 96-well plate containing THP-1 cells (1.4×10^6/mL, 2.5×10^5 cells/well) in 180 μL RPMI-1640 was added 20 μL of the test compound in 10% DMSO. […] After one hour at 37° C., 20 μL of 1000 ng/mL lipopolysaccharide (LPS from Salmonella typhosa, Sigma) was added to each well. After an additional 6 hours at 37° C., the supernatants were collected following a 5 minute centrifugation of the plate to pellet the cells. The amount of TNFα in these supernatants was then measured using a TNFα-specific ELISA (Pharmingen). […] IC50 values were calculated from the percentage inhibition at various doses.

LPS-induced serum TNFα = LPS-induced serum TNFα in mice; assay type: in vivo, BALB/c mice; details: p.o.
Description: As a measure of activity against NF-κB-dependent TNFα production in vivo, test compounds were administered to BALB/c mice subsequently challenged with an intravenous dose of E. coli LPS (1 μg in 100 μL phosphate-buffered saline). One hour after LPS challenge, blood was collected from the mice and the levels of TNFα in the serum measured by EIA(R&D Systems). Inhibition was calculated from control animals which received LPS challenge with no test compound.

Cc1ccc2nc(NCCN)c3ncc(C)n3c2c1 [Compound 6, 4(2′-aminoethyl)amino-1,8-dimethylimidazo(1,2-a)quinoxaline]
half-life (Pharmacokinetics in mice; iv, apparent terminal elimination phase after i.v. dose): 7.9 h
bioavailability (Pharmacokinetics in mice; oral, AUC p.o. divided by AUC i.v.): 100%
Median Graft Survival Time ([1]; CTLA4-Ig (200 μg i.p. days 0, 2, 4) plus Compound 6 50 mg/kg p.o.): 32 days
Median Graft Survival Time ([1]; CTLA4-Ig (200 μg i.p. days 0, 2, 4) plus Compound 6 100 mg/kg p.o.): >60 days
Median Graft Survival Time ([1]; Compound 6 50 mg/kg p.o. alone): 12 days
Median Graft Survival Time ([1]; Cyclosporine A 15 mg/kg p.o. plus Compound 6 50 mg/kg p.o.): 29 days
effect of combination with cyclosporine A or CTLA4-Ig on graft survival ([1]; co-administered with cyclosporine A or CTLA4-Ig): synergistic effects
Cumulative arthritis injury score (±sem) ([2]; established mode, 10 mg/kg, two weeks after disease onset): 4.2 ± 1.0
disease progression ([2]; established mode, 30 mg/kg p.o., vs vehicle): significantly inhibited disease progression
Cumulative arthritis injury score (±sem) ([2]; established mode, 30 mg/kg, two weeks after disease onset): 2.1 ± 0.9
disease progression ([2]; established mode, 100 mg/kg p.o.): significant disease resolution
Cumulative arthritis injury score (±sem) ([2]; established mode, 100 mg/kg, two weeks after disease onset): 0.9 ± 0.5
Cumulative arthritis injury score (±sem) ([2]; preventative mode, 10 mg/kg): 5.3 ± 1.7
Cumulative arthritis injury score (±sem) ([2]; preventative mode, 30 mg/kg): 0.4 ± 0.4
disease onset ([2]; preventative mode, 30 mg/kg p.o. daily): inhibited disease onset
Cumulative arthritis injury score (±sem) ([2]; preventative mode, 30 mg/kg, listed as compound 6, 30 mg/kg): 0.4
Cumulative arthritis injury score (±sem) ([2]; preventative mode, 100 mg/kg): 0.0
incidence of disease (FIG. 1) ([2]; preventative mode, 100 mg/kg daily, vs vehicle): significant difference in incidence of disease
disease onset ([2]; preventative mode, 100 mg/kg p.o. daily): prevented any disease onset
Cumulative arthritis injury score (±sem) ([2]; preventative mode, 100 mg/kg, listed as compound 6, 100 mg/kg): 0
Group Mean Inflammation Histological Score (DSS-induced colitis; 30 mg/kg p.o. daily): 7.58 ± 0.81
Group Mean Injury Histological Score (DSS-induced colitis; 30 mg/kg p.o. daily): 4.83 ± 0.55
Mean clinical score (DSS-induced colitis; 30 mg/kg p.o. daily): 1.10 ± 0.49
Group Mean Inflammation Histological Score (DSS-induced colitis; 100 mg/kg p.o. daily): 6.82 ± 0.85
Group Mean Injury Histological Score (DSS-induced colitis; 100 mg/kg p.o. daily): 5.66 ± 0.87
Mean clinical score (DSS-induced colitis; 100 mg/kg p.o. daily): 1.00 ± 0.35
clinical and histological score vs untreated mice (DSS-induced colitis; daily administration): statistically significant decrease in clinical and histological score
Total Inflammatory Cells in BAL ([3]; 30 mg/kg p.o.): 2.8 × 10^6 ± 1.3 × 10^6
Total Inflammatory Cells in BAL ([3]; 100 mg/kg p.o.): 2.2 × 10^6 ± 0.3 × 10^6
total inflammatory cells in the lungs vs untreated mice ([3]; administration after ovalbumin challenge): statistically significant decrease in total inflammatory cells in the lungs
IC50 [4]: 4 µM
inhibition of the LPS-induced serum TNFα levels in vivo (LPS-induced serum TNFα; 10 mg/kg): 27-63%
inhibition of the LPS-induced serum TNFα levels in vivo (LPS-induced serum TNFα; 30 mg/kg): 53-89%
inhibition of the LPS-induced serum TNFα levels in vivo (LPS-induced serum TNFα; 50 mg/kg): 83-92%
